This note sets out measurements from patent publication US8580955B2, “Purification method and production method for cellobiose” (Matsutani Chemical Industry Co., Ltd., priority 2005, dated 2013).

Series [1] in a line: Determination of solubility of cellobiose (Karl Fisher moisture of supernatant). It is filed as physicochemical. Conditions: supernatant of 20% (w/v) solution after crystal formation, 100% minus moisture content. The method, then:
There was prepared a 20% (w/v) solution of a commercially available cellobiose (manufactured by Wako Pure Chemical Co., Ltd.), the resulting solution was introduced into a thermostatic chamber maintained at a temperature ranging from 10 to 60° C. to thus form crystals of cellobiose, thereafter the content of water present in the supernatant was determined using a Karl Fisher moisture meter and then the solubility was calculated by subtracting the moisture content from 100%.

Series [2] in a line: Solubility in water expressed as dissolution time. Type of series: physicochemical. Conditions: for Dissolution Time: 10 g in 100 mL deionized water at 25 °C with stirring. As for the experimental part:
The solubility (the rate of dissolution) of crystalline cellobiose in water may vary depending on the rates of the stereoisomers (the rates of the α- and β-anomers). For instance, when the cellobiose crystals are dissolved in water, the resulting solution is maintained at a high temperature falling within the range in which the solution is not boiled, preferably 80 to 95° C. for a time ranging from 0.5 to 2.0 hours and then the solution is dried while maintaining the same at that temperature, the ratio of the α-anomer is increased to thus give cellobiose powder improved in its solubility in water.
The cellobiose-containing sugar solution having a high content of cellobiose, prepared in Example 4 was concentrated to a solid content concentration of 20%, the sugar solution was then maintained at a temperature of 20° C., 60° C. or 80° C. for one hour and, immediately thereafter, the solution was dried in a spray dryer to thus give cellobiose powder. These powdery cellobiose products were inspected for the solubility in water and the distribution rate of anomers. In this respect, the distribution rate of anomers was determined using Gas Chromatograph GC14 available from Shimadzu Corporation which was equipped with a column: DB1701 (inner diameter: 0.25 mm; length: 30 m) available from J & W Company. More specifically, each sample (1.0 mg) was dissolved in 0.769 mL of pyridine, 0.077 mL of TMSC and 0.154 mL of HMDS were added to the resulting solution, the mixture was maintained at room temperature for one hour and then it was used in the gas chromatography analysis.

For `O=C[C@H](O)[C@@H](O)[C@H](O[C@@H]1O[C@H](CO)[C@@H](O)[C@H](O)[C@H]1O)[C@H](O)CO` [Cellobiose, cellobiose], the “Solubility of Cellobiose” value in series [1] (10 °C) stood at 13.5%; in series [1] (20 °C) it was 14.0%; in series [1] (30 °C) it was 14.7%; in series [1] (40 °C), 18.4%; in series [1] (50 °C), 22.9%; in series [1] (60 °C), 26.3%.

As to `O=C[C@H](O)[C@@H](O)[C@H](O[C@@H]1O[C@H](CO)[C@@H](O)[C@H](O)[C@H]1O)[C@H](O)CO` [Example 1, cellobiose], in series [2] (10 g sample in 100 mL deionized water at 25 °C with stirring, crystals), the “time required for the dissolution” value is 12.5 min.

As for `O=C[C@H](O)[C@@H](O)[C@H](O[C@@H]1O[C@H](CO)[C@@H](O)[C@H](O)[C@H]1O)[C@H](O)CO` [Example 5, cellobiose], the “Dissolution Time” value in series [2] (powder spray-dried from sugar solution kept at 20 °C for one hour) stood at 8.0 min; in series [2] (powder spray-dried from sugar solution kept at 60 °C for one hour) it was 4.0 min; in series [2] (powder spray-dried from sugar solution kept at 80 °C for one hour) it was 2.5 min.
